Reference: ChEMBL document CHEMBL4145686, “Discovery of a Potent and Selective Steroidal Glucocorticoid Receptor Antagonist (ORIC-101)” (J Med Chem, 2018)

Experiments:
[1] = Volume of distribution at steady state in rat at 0.5 mg/kg, iv; format: ADME, organism-based; settings: in vivo, read-out: Vdss
[2] = Half life in mini pig at 0.5 mg/kg, iv; format: ADME, organism-based, Sus scrofa; settings: in vivo
[3] = Cmax in mini pig at 10 mg/kg, po; format: ADME, organism-based, Sus scrofa; parameters: dose 10 mg/kg, route oral; settings: in vivo
[4] = AUC in mini pig at 10 mg/kg, po; format: ADME, organism-based, Sus scrofa; settings: in vivo
Progesterone receptor = molecular target: T1, Progesterone receptor (Homo sapiens, UniProt P06401); experiment: Agonist activity at human PR expressed in CHO-K1 cells incubated for 20 hrs by luciferase reporter gene assay; format: cell-based; settings: cho-k1, 20 h
T1 sequence (P06401 whole entry): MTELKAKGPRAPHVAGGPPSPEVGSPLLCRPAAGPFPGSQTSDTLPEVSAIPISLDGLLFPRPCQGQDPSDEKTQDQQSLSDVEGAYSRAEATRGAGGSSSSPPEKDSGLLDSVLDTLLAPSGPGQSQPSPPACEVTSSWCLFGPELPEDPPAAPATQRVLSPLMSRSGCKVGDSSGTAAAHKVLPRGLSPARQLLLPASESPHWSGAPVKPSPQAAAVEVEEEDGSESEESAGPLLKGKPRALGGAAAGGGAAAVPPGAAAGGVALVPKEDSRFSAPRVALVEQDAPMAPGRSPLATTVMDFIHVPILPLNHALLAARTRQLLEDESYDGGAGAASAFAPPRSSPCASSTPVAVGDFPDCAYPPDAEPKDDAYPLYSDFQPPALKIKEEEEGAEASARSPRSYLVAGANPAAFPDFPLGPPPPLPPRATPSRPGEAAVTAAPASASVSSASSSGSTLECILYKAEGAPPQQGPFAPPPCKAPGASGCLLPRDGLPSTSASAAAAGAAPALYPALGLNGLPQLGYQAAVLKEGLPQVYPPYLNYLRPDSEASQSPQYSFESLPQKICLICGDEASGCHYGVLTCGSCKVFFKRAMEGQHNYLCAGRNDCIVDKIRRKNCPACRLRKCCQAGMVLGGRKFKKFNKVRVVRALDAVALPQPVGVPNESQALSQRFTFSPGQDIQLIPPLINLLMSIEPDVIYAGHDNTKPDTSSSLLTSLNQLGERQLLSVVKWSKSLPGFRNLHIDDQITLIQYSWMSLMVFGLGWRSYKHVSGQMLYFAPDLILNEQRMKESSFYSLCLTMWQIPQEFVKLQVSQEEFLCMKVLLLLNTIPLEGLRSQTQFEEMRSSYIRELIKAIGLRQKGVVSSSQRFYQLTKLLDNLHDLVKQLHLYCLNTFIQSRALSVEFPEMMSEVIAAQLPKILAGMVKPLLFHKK

Glucocorticoid receptor [5] = molecular target: T2, Glucocorticoid receptor (Rattus norvegicus, UniProt P06536); experiment: Antagonist activity at GR in rat PBMC assessed as reduction in dexamethasone-induced GILZ gene expression incubated for 24 hrs by RT-qPCR method; format: cell-based
T2 sequence (P06536 whole entry): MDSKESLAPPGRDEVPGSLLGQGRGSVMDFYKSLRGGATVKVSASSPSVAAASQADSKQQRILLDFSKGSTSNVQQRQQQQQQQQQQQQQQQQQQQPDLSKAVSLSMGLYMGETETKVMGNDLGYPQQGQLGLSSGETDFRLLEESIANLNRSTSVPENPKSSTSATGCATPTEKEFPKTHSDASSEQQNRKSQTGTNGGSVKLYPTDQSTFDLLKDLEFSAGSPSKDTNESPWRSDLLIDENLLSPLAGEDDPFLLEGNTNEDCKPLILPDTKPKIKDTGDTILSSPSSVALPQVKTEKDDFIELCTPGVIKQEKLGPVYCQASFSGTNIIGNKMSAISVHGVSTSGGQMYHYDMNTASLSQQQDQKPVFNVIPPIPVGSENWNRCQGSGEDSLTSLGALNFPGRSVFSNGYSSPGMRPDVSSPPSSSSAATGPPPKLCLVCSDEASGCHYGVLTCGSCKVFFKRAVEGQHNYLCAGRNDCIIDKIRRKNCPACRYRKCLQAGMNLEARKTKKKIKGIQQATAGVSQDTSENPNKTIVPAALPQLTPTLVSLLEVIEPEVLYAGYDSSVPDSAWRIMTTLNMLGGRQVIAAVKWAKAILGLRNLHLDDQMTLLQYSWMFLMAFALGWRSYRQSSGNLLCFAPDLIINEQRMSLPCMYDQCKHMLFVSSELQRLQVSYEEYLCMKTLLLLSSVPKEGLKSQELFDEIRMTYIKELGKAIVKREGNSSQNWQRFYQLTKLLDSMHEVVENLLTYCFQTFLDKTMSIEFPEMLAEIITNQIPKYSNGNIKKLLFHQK

[6] = molecular target: T3, Glucocorticoid receptor (Sus scrofa) (UniProt Q9N1U3); experiment: (§1) Antagonist activity at GR in mini pig PBMC assessed as reduction in dexamethasone-induced GILZ gene expression incubated for 24 hrs by RT-qPCR method; format: cell-based
T3 sequence (whole entry): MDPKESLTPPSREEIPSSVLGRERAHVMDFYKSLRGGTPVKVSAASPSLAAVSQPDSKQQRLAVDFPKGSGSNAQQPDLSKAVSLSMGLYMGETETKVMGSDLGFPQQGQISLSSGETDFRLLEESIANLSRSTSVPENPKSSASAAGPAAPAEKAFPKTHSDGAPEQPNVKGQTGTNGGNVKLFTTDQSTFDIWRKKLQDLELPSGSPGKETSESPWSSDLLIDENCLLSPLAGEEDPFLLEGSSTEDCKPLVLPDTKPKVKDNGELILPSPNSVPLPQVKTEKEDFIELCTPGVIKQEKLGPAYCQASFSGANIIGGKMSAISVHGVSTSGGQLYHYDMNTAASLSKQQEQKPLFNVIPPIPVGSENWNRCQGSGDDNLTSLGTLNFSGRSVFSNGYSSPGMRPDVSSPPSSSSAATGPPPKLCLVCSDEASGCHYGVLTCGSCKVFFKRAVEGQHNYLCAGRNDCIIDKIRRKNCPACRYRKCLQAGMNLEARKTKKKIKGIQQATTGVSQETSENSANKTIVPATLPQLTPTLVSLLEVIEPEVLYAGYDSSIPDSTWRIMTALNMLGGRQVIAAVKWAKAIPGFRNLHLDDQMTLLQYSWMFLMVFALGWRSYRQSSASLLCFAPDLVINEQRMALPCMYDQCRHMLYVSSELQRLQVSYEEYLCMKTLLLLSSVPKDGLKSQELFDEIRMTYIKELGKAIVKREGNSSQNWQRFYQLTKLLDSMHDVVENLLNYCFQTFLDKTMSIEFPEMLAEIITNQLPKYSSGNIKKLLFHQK

Glucocorticoid receptor [7] = molecular target: T4, Glucocorticoid receptor (Sus scrofa, UniProt Q9N1U3); experiment: as §1; format: cell-based
T4 sequence (Q9N1U3 whole entry): T3 sequence (whole entry)

`CC(C)N(C)c1ccc([C@H]2C[C@@]3(C)[C@@H](CC[C@@]3(O)C#CC(C)(C)C)[C@@H]3CCC4=CC(=O)CC[C@@H]4[C@H]32)cc1` gave a Vd [1] of 4.6 L/kg, a half-life [2] of 12.2 h and a Cmax [3] of 153 ng/mL. For the same compound, the AUC [4] was 1720 ng·h/mL, the Activity (Progesterone receptor) was “Not Active” and the IC50 (Glucocorticoid receptor [5]) was 59.4 nM. The inhibition [6] was “Dose-dependent effect” and the IC50 (Glucocorticoid receptor [7]) was 181 nM.
